Data from article PMC6001238, “Iterative Chemical Engineering of Vancomycin Leads to Novel Vancomycin Analogs With a High in Vitro Therapeutic Index” (Frontiers in Microbiology, 2018).
Converted amounts (≈) assume the structure as drawn.

Legend:
MRSA KS89 = test: MIC, broth microdilution, MRSA KS89; type: cell-based, Staphylococcus aureus; conditions: for MIC-fold improvement vs. vancomycin: MRSA KS8, ratio of MIC of vancomycin and MIC of analogue; for MIC: Staphylococcus aureus MRSA KS8, read-out: MIC
In short: (§1)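 Serial dilutions in broth, set up per CLSI guidance, gave the MIC. Where noted, test analogues or comparator antibiotics were combined with vancomycin at 10 μM final. Controls: ultrapure water, broth without inoculum.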

E. faecalis VRE 53 = test: MIC, broth microdilution, vancomycin-resistant E. faecalis VRE 53 (VanA); type: cell-based, Enterococcus faecalis; conditions: for MIC: Enterococcus faecalis VRE 53 (vancomycin-resistant), read-out: MIC; for MIC-fold improvement vs. vancomycin: VRE 53, ratio of MIC of vancomycin and MIC of analogue
In short: as §1

[1] = tested on: human T-lymphocyte (CEM) cells; test: Cytostatic activity, CEM cell proliferation; type: cell-based; conditions: mean ± SD of three experiments; highest concentration tested 250 µM; 3 days; read-out: Toxicity (IC50) CEM
In short: (§2)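 Readout: Coulter cell number after drug exposure at 37°C. Durations differ by line (L1210 2 days; CEM 3 days; HeLa 4 days). Stock suspension 300,000–500,000 cells/mL, diluted by mixing with compound. Endpoint: IC50 vs negative control.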

[2] = tested on: human cervix carcinoma (HeLa) cells; test: Cytostatic activity, HeLa cell proliferation; type: cell-based; conditions: mean ± SD of three experiments; highest concentration tested 250 µM; 4 days; read-out: Toxicity (IC50) HeLa
In short: as §2

S. aureus VRSA = test: MIC, broth microdilution, vancomycin-resistant S. aureus (VRSA); type: cell-based, Staphylococcus aureus; conditions: for MIC: Staphylococcus aureus VRSA, read-out: MIC; for MIC-fold improvement vs. vancomycin: VRSA, ratio of MIC of vancomycin and MIC of analogue
In short: as §1

S. aureus VISA/HIP5827 = test: MIC, broth microdilution, vancomycin-intermediate S. aureus VISA HIP5827; type: cell-based, Staphylococcus aureus; conditions: for MIC: Staphylococcus aureus VISA/HIP5827, read-out: MIC; for MIC-fold improvement vs. vancomycin: VISA/HIP5827, ratio of MIC of vancomycin and MIC of analogue
In short: as §1

[3] = tested on: L1210, CEM and HeLa cell lines; test: Cytostatic activity, average or summary over L1210, CEM and HeLa; type: cell-based; conditions: average of L1210, CEM and HeLa; read-out: Toxicity (IC50) Average
In short: as §2

E. faecalis VRE 6 = test: MIC, broth microdilution, vancomycin-resistant E. faecalis VRE 6 (VanA); type: cell-based, Enterococcus faecalis; conditions: for MIC: Enterococcus faecalis VRE 6 (vancomycin-resistant), read-out: MIC; for MIC-fold improvement vs. vancomycin: VRE 6, ratio of MIC of vancomycin and MIC of analogue
In short: as §1

[4] = tested on: Murine leukemia (L1210) cells; test: Cytostatic activity, L1210 cell proliferation; type: cell-based; conditions: mean ± SD of three experiments; highest concentration tested 250 µM; 2 days; read-out: Toxicity (IC50) L1210
In short: as §2

E. faecalis VSE 1 = test: MIC, broth microdilution, vancomycin-sensitive E. faecalis (VSE 1); type: cell-based, Enterococcus faecalis; conditions: for MIC: Enterococcus faecalis VSE 1 (vancomycin-sensitive), read-out: MIC; for MIC-fold improvement vs. vancomycin: VSE 1, ratio of MIC of vancomycin and MIC of analogue
In short: as §1

MRSA KS1 = test: MIC, broth microdilution, MRSA KS1; type: cell-based, Staphylococcus aureus; conditions: for MIC-fold improvement vs. vancomycin: MRSA KS1, ratio of MIC of vancomycin and MIC of analogue; for MIC: Staphylococcus aureus MRSA KS1, read-out: MIC
In short: as §1

E. faecalis VRE 37 = test: MIC, broth microdilution, vancomycin-resistant E. faecalis VRE 37 (VanA); type: cell-based, Enterococcus faecalis; conditions: for MIC: Enterococcus faecalis VRE 37 (vancomycin-resistant), read-out: MIC; for MIC-fold improvement vs. vancomycin: VRE 37, ratio of MIC of vancomycin and MIC of analogue
In short: as §1

MRSA KS6 = test: MIC, broth microdilution, MRSA KS6; type: cell-based, Staphylococcus aureus; conditions: for MIC-fold improvement vs. vancomycin: MRSA KS6, ratio of MIC of vancomycin and MIC of analogue; for MIC: Staphylococcus aureus MRSA KS6, read-out: MIC
In short: as §1

MRSA KS2 = test: MIC, broth microdilution, MRSA KS2; type: cell-based, Staphylococcus aureus; conditions: for MIC-fold improvement vs. vancomycin: MRSA KS2, ratio of MIC of vancomycin and MIC of analogue; for MIC: Staphylococcus aureus MRSA KS2, read-out: MIC
In short: as §1

[5] = tested on: S. aureus VSSA (ATCC 6538); test: MIC, broth microdilution, vancomycin-sensitive S. aureus (VSSA/MSSA, ATCC 6538); type: cell-based, Staphylococcus aureus; conditions: for MIC: Staphylococcus aureus VSSA, read-out: MIC; for MIC-fold improvement vs. vancomycin: VSSA, ratio of MIC of vancomycin and MIC of analogue
In short: as §1

E. faecalis VRE 29 = test: MIC, broth microdilution, vancomycin-resistant E. faecalis VRE 29 (VanA); type: cell-based, Enterococcus faecalis; conditions: for MIC: Enterococcus faecalis VRE 29 (vancomycin-resistant), read-out: MIC; for MIC-fold improvement vs. vancomycin: VRE 29, ratio of MIC of vancomycin and MIC of analogue
In short: as §1

Row | SMILES | MIC-fold improvement vs. vancomycin (MRSA KS89) | MIC (MRSA KS89) | MIC (E. faecalis VRE 53) | MIC-fold improvement vs. vancomycin (E. faecalis VRE 53) | IC50 [1] | IC50 [2] | MIC (S. aureus VRSA) | MIC-fold improvement vs. vancomycin (S. aureus VRSA) | MIC (S. aureus VISA/HIP5827) | MIC-fold improvement vs. vancomycin (S. aureus VISA/HIP5827) | IC50 [3] | MIC (E. faecalis VRE 6) | MIC-fold improvement vs. vancomycin (E. faecalis VRE 6) | IC50 [4] | MIC (E. faecalis VSE 1) | MIC-fold improvement vs. vancomycin (E. faecalis VSE 1) | MIC-fold improvement vs. vancomycin (MRSA KS1) | MIC (MRSA KS1) | MIC (E. faecalis VRE 37) | MIC-fold improvement vs. vancomycin (MRSA KS6) | also measured
1 | CCCCC#Cc1ccc(NC(=O)CNC(=O)[C@H]2NC(=O)[C@H]3NC(=O)[C@H](NC(=O)[C@@H]4NC(=O)[C@H](CC(N)=O)NC(=O)[C@H](NC(=O)[C@@H](CC(C)C)NC)[C@H](O)c5ccc(c(Cl)c5)Oc5cc4cc(c5O[C@@H]4O[C@H](CO)[C@@H](O)[C@H](O)[C@H]4O[C@H]4C[C@](C)(N)[C@H](O)[C@H](C)O4)Oc4ccc(cc4Cl)[C@H]3O)c3ccc(O)c(c3)-c3c(O)cc(O)cc32)cc1 [Vanc-37] | 4 | 0.20 µM (≈ 0.332 µg/mL) | 3.13 µM (≈ 5.2 µg/mL) | 128 | 24 ± 4 µM | 118 ± 10 µM | 1.56 µM (≈ 2.59 µg/mL) | 64 | 0.10 µM (≈ 0.166 µg/mL) | 64 | 52 µM | 1.56 µM (≈ 2.59 µg/mL) | 128 | 14 ± 7 µM | 0.20 µM (≈ 0.332 µg/mL) | 8 | 4 | 0.20 µM (≈ 0.332 µg/mL) | 1.56 µM (≈ 2.59 µg/mL) | 8 | MIC-fold improvement vs. vancomycin (E. faecalis VRE 37): 256; MIC (MRSA KS6): 0.10 µM (≈ 0.166 µg/mL); MIC-fold improvement vs. vancomycin (MRSA KS2): 4; MIC (MRSA KS2): 0.20 µM (≈ 0.332 µg/mL); MIC [5]: 0.10 µM (≈ 0.166 µg/mL); MIC-fold improvement vs. vancomycin [5]: 8; MIC (E. faecalis VRE 29): 6.25 µM (≈ 10.4 µg/mL); MIC-fold improvement vs. vancomycin (E. faecalis VRE 29): 64
2 | CN[C@H](CC(C)C)C(=O)N[C@H]1C(=O)N[C@@H](CC(N)=O)C(=O)N[C@H]2C(=O)N[C@H]3C(=O)N[C@H](C(=O)N[C@H](C(=O)NCC(=O)Nc4ccc(C#Cc5ccccc5)cc4)c4cc(O)cc(O)c4-c4cc3ccc4O)[C@H](O)c3ccc(c(Cl)c3)Oc3cc2cc(c3O[C@@H]2O[C@H](CO)[C@@H](O)[C@H](O)[C@H]2O[C@H]2C[C@](C)(N)[C@H](O)[C@H](C)O2)Oc2ccc(cc2Cl)[C@H]1O [Vanc-38] | 4 | 0.20 µM (≈ 0.336 µg/mL) | 3.13 µM (≈ 5.26 µg/mL) | 128 | 4.4 ± 0.5 µM | 24 ± 1 µM | 0.78 µM (≈ 1.31 µg/mL) | 128 | 0.05 µM (≈ 0.0841 µg/mL) | 128 | 12 µM | 0.39 µM (≈ 0.656 µg/mL) | 513 | 8 ± 3.1 µM | 0.20 µM (≈ 0.336 µg/mL) | 8 | 4 | 0.20 µM (≈ 0.336 µg/mL) | 3.13 µM (≈ 5.26 µg/mL) | 4 | MIC-fold improvement vs. vancomycin (E. faecalis VRE 37): 128; MIC (MRSA KS6): 0.20 µM (≈ 0.336 µg/mL); MIC-fold improvement vs. vancomycin (MRSA KS2): 4; MIC (MRSA KS2): 0.20 µM (≈ 0.336 µg/mL); MIC [5]: 0.05 µM (≈ 0.0841 µg/mL); MIC-fold improvement vs. vancomycin [5]: 16; MIC (E. faecalis VRE 29): 1.56 µM (≈ 2.62 µg/mL); MIC-fold improvement vs. vancomycin (E. faecalis VRE 29): 256
3 | CN[C@H](CC(C)C)C(=O)N[C@H]1C(=O)N[C@@H](CC(N)=O)C(=O)N[C@H]2C(=O)N[C@H]3C(=O)N[C@H](C(=O)N[C@H](C(=O)NCC(=O)Nc4ccc(C(F)(F)F)cc4)c4cc(O)cc(O)c4-c4cc3ccc4O)[C@H](O)c3ccc(c(Cl)c3)Oc3cc2cc(c3O[C@@H]2O[C@H](CO)[C@@H](O)[C@H](O)[C@H]2O[C@H]2C[C@](C)(N)[C@H](O)[C@H](C)O2)Oc2ccc(cc2Cl)[C@H]1O [Vanc-40] | 2 | 0.39 µM (≈ 0.643 µg/mL) | 25 µM (≈ 41.2 µg/mL) | 16 | > 250 µM | > 250 µM | 3.13 µM (≈ 5.16 µg/mL) | 32 | 1.56 µM (≈ 2.57 µg/mL) | 4 | > 250 µM | 6.25 µM (≈ 10.3 µg/mL) | 32 | > 250 µM | 0.78 µM (≈ 1.29 µg/mL) | 2 | 2 | 0.39 µM (≈ 0.643 µg/mL) | 12.5 µM (≈ 20.6 µg/mL) | 2 | MIC (MRSA KS6): 0.39 µM (≈ 0.643 µg/mL); MIC-fold improvement vs. vancomycin (MRSA KS2): 2; MIC (MRSA KS2): 0.39 µM (≈ 0.643 µg/mL); MIC [5]: 0.78 µM (≈ 1.29 µg/mL); MIC-fold improvement vs. vancomycin [5]: 1; MIC (E. faecalis VRE 29): 12.5 µM (≈ 20.6 µg/mL); MIC-fold improvement vs. vancomycin (E. faecalis VRE 29): 32
4 | CN[C@H](CC(C)C)C(=O)N[C@H]1C(=O)N[C@@H](CC(N)=O)C(=O)N[C@H]2C(=O)N[C@H]3C(=O)N[C@H](C(=O)N[C@H](C(=O)NCC(=O)Nc4cccc5ccccc45)c4cc(O)cc(O)c4-c4cc3ccc4O)[C@H](O)c3ccc(c(Cl)c3)Oc3cc2cc(c3O[C@@H]2O[C@H](CO)[C@@H](O)[C@H](O)[C@H]2O[C@H]2C[C@](C)(N)[C@H](O)[C@H](C)O2)Oc2ccc(cc2Cl)[C@H]1O [Vanc-41] | 2 | 0.39 µM (≈ 0.636 µg/mL) | 25 µM (≈ 40.8 µg/mL) | 16 | > 250 µM | > 250 µM | 6.25 µM (≈ 10.2 µg/mL) | 16 | 1.56 µM (≈ 2.55 µg/mL) | 4 | > 250 µM | 6.25 µM (≈ 10.2 µg/mL) | 32 | > 250 µM | 0.39 µM (≈ 0.636 µg/mL) | 4 | 2 | 0.39 µM (≈ 0.636 µg/mL) | 12.5 µM (≈ 20.4 µg/mL) | 2 | MIC (MRSA KS6): 0.39 µM (≈ 0.636 µg/mL); MIC-fold improvement vs. vancomycin (MRSA KS2): 2; MIC (MRSA KS2): 0.39 µM (≈ 0.636 µg/mL); MIC [5]: 0.78 µM (≈ 1.27 µg/mL); MIC-fold improvement vs. vancomycin [5]: 1; MIC (E. faecalis VRE 29): 12.5 µM (≈ 20.4 µg/mL); MIC-fold improvement vs. vancomycin (E. faecalis VRE 29): 32
